Values quoted from earlier work, collected in patent US6720307B2, “Glycosylated analogs of fusidic acid” (The University of Michigan, priority 1996, dated 2004).

Tests used:
[1] = system: HIV; settings: in vitro
[2] = system: S. epidermidis
[3] = system: methicillin-resistant staphylococci
[4] = system: Gram-negative bacilli
[5] = system: Staphylococcus aureus
[6] = system: Nocardia spp.
[7] = system: fungi
[8] = system: corynebacteria
[9] = system: Bacteroides spp.
[10] = system: mycobacteria
[11] = system: enterobacteria; settings: all enterobacteria
[12] = system: Clostridium spp.
[13] = system: Psuedomonas spp.
[14] = system: Neisseria
[15] = system: streptococci

Compound: CC(=O)O[C@H]1C[C@@]2(C)[C@@H](C[C@@H](O)[C@H]3[C@@]4(C)CC[C@@H](O)[C@@H](C)[C@@H]4CC[C@@]32C)/C1=C(\CCC=C(C)C)C(=O)O [fusidic acid, 3α,11α,16β-Trihydroxy-29-nor-8α,9β,13α,14β-dammara-17(20),24-dien-21-oic acid 16-acetate]
- effectiveness against HIV [1]: in vitro effectiveness
- susceptibility to fusidic acid [2]: highly susceptible
- susceptibility to fusidic acid [3]: usually susceptible
- susceptibility to fusidic acid [4]: resistant
- susceptibility to fusidic acid [5]: highly susceptible
- efficacy [6]: moderate efficacy
- susceptibility to fusidic acid [7]: resistant
- susceptibility to fusidic acid [8]: highly susceptible
- susceptibility to fusidic acid [9]: susceptible
- efficacy [10]: moderate efficacy
- susceptibility to fusidic acid [11]: resistant
- susceptibility to fusidic acid [12]: highly susceptible
- susceptibility to fusidic acid [13]: resistant
- susceptibility to fusidic acid [14]: susceptible
- efficacy [15]: moderate efficacy
